# Experimental data reported in ChEMBL document CHEMBL1201862, “PubChem BioAssay data set” (2004).
#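 These data come from cells grown in 96-well plates and exposed to compound for 48 hours at five concentrations. GI50 is the concentration that inhibits growth by half.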 Activity calls are given as the source filed them. Cut-off read from the data, not from the text of the source: active = GI50 up to about 1.1 µM and inactive = higher.
# Key:
# Test in all cases: inhibition of tumour cell growth, NCI panel, 48 h
# [1] = system: Malme-3M
# [2] = system: OVCAR-3
# [3] = system: SNB-75
# [4] = system: UACC-257
# [5] = system: BT-549
# [6] = system: SR
# [7] = system: COLO 205
# [8] = system: MCF7
# [9] = system: HOP-62
# [10] = system: NCI-H460
# [11] = system: SF-268
# [12] = system: EKVX
# [13] = system: K562
# [14] = system: MDA-N
# [15] = system: CCRF-CEM
# [16] = system: OVCAR-5
# [17] = system: SN12C
# [18] = system: KM12
# [19] = system: 786-0
# [20] = system: UACC-62
# [21] = system: HCC 2998
# [22] = system: HT-29
# [23] = system: Hs-578T
# [24] = system: UO-31
# [25] = system: CAKI-1
# [26] = system: SF-295
# [27] = system: LOX IMVI
# [28] = system: PC-3
# [29] = system: IGROV-1
# [30] = system: NCI-H226
# [31] = system: SK-MEL-2
# [32] = system: HL-60
# [33] = system: NCI-H23
# [34] = system: SK-MEL-5
# [35] = system: NCI-H522
# [36] = system: M14
# [37] = system: RPMI-8226
# [38] = system: SF-539
# [39] = system: DU-145
# [40] = system: MOLT-4
# [41] = system: U-251
# [42] = system: SK-OV-3
# [43] = system: NCI/ADR-RES
# [44] = system: OVCAR-8
# [45] = system: HCT-116
# [46] = system: SW-620
# [47] = system: ACHN
# [48] = system: SK-MEL-28
# [49] = system: HCT-15
# [50] = system: A549
# [51] = system: OVCAR-4
# [52] = system: T47D
# [53] = system: MDA-MB-231
# [54] = system: TK-10
# [55] = system: MDA-MB-435
# [56] = system: A498
# [57] = system: SNB-19
# [58] = system: RXF 393
smiles,measurement,setting,value
COC(=O)C1Cc2ccc(C)cc2C1=O (stereo not given),GI50,[1],> 100 µM (inactive)
same,GI50,[2],> 100 µM (inactive)
same,GI50,[3],> 100 µM (inactive)
same,GI50,[4],> 100 µM (inactive)
same,GI50,[5],> 100 µM (inactive)
same,GI50,[6],> 100 µM (inactive)
same,GI50,[7],> 100 µM (inactive)
same,GI50,[8],> 100 µM (inactive)
same,GI50,[9],> 100 µM (inactive)
same,GI50,[10],> 100 µM (inactive)
same,GI50,[11],> 100 µM (inactive)
same,GI50,[12],> 100 µM (inactive)
same,GI50,[13],> 100 µM (inactive)
same,GI50,[14],> 100 µM (inactive)
same,GI50,[15],> 100 µM (inactive)
same,GI50,[16],> 100 µM (inactive)
same,GI50,[17],> 100 µM (inactive)
same,GI50,[18],83.4 µM (inactive)
same,GI50,[19],> 100 µM (inactive)
same,GI50,[20],> 100 µM (inactive)
same,GI50,[21],> 100 µM (inactive)
same,GI50,[22],> 100 µM (inactive)
same,GI50,[23],> 100 µM (inactive)
same,GI50,[24],> 100 µM (inactive)
same,GI50,[25],> 100 µM (inactive)
same,GI50,[26],> 100 µM (inactive)
same,GI50,[27],> 100 µM (inactive)
same,GI50,[28],> 100 µM (inactive)
same,GI50,[29],> 100 µM (inactive)
same,GI50,[30],> 100 µM (inactive)
same,GI50,[31],> 100 µM (inactive)
same,GI50,[32],25.8 µM (inactive)
same,GI50,[33],> 100 µM (inactive)
same,GI50,[34],50.7 µM (inactive)
same,GI50,[35],> 100 µM (inactive)
same,GI50,[36],> 100 µM (inactive)
same,GI50,[37],> 100 µM (inactive)
same,GI50,[38],> 100 µM (inactive)
same,GI50,[39],> 100 µM (inactive)
same,GI50,[40],> 100 µM (inactive)
same,GI50,[41],> 100 µM (inactive)
same,GI50,[42],> 100 µM (inactive)
same,GI50,[43],> 100 µM (inactive)
same,GI50,[44],> 100 µM (inactive)
same,GI50,[45],> 100 µM (inactive)
same,GI50,[46],> 100 µM (inactive)
same,GI50,[47],> 100 µM (inactive)
same,GI50,[48],> 100 µM (inactive)
same,GI50,[49],> 100 µM
same,GI50,[50],> 100 µM (inactive)
same,GI50,[51],> 100 µM (inactive)
same,GI50,[52],> 100 µM (inactive)
same,GI50,[53],> 100 µM (inactive)
same,GI50,[54],> 100 µM (inactive)
same,GI50,[55],> 100 µM (inactive)
same,GI50,[56],> 100 µM (inactive)
same,GI50,[57],> 100 µM (inactive)
COC(=O)C(Cc1ccccc1)NP(=O)(O)OCC1OC(n2cc(F)c(=O)[nH]c2=O)CC1O (stereo not given),GI50,[1],> 100 µM (inactive)
same,GI50,[2],> 100 µM (inactive)
same,GI50,[3],> 31.9 µM (inactive)
same,GI50,[4],> 56 µM (inactive)
same,GI50,[58],> 100 µM (inactive)
same,GI50,[5],> 100 µM (inactive)
same,GI50,[6],2.54 µM (inactive)
same,GI50,[7],74 µM (inactive)
same,GI50,[8],0.317 µM (active)
same,GI50,[9],2.58 µM (inactive)
same,GI50,[10],0.236 µM (active)
same,GI50,[11],1.75 µM (inactive)
same,GI50,[12],> 100 µM (inactive)
same,GI50,[13],65.3 µM (inactive)
same,GI50,[14],> 69 µM (inactive)
same,GI50,[15],1.1 µM (active)
same,GI50,[16],> 100 µM (inactive)
same,GI50,[17],10.4 µM (inactive)
same,GI50,[18],> 100 µM (inactive)
same,GI50,[19],4.14 µM (inactive)
same,GI50,[20],7 µM (inactive)
same,GI50,[21],2.39 µM (inactive)
same,GI50,[22],11.2 µM (inactive)
same,GI50,[23],> 82.8 µM (inactive)
same,GI50,[24],5.24 µM (inactive)
same,GI50,[25],3.72 µM (inactive)
same,GI50,[26],3.72 µM (inactive)
same,GI50,[27],3.21 µM (inactive)
same,GI50,[28],> 78.5 µM (inactive)
same,GI50,[29],> 22.5 µM (inactive)
same,GI50,[30],> 33.4 µM (inactive)
same,GI50,[31],> 100 µM (inactive)
same,GI50,[32],10.5 µM (inactive)
same,GI50,[33],10.9 µM (inactive)
same,GI50,[34],15.3 µM (inactive)
same,GI50,[35],> 100 µM (inactive)
same,GI50,[36],21.3 µM (inactive)
same,GI50,[37],> 79.6 µM (inactive)
same,GI50,[38],0.991 µM (active)
same,GI50,[39],9.79 µM (inactive)
same,GI50,[40],4.78 µM (inactive)
same,GI50,[41],8.99 µM (inactive)
same,GI50,[42],61.4 µM (inactive)
same,GI50,[43],5.7 µM (inactive)
same,GI50,[44],9.12 µM (inactive)
same,GI50,[45],5.53 µM (inactive)
same,GI50,[46],> 100 µM (inactive)
same,GI50,[47],1.44 µM (inactive)
same,GI50,[48],> 67 µM (inactive)
same,GI50,[49],> 100 µM
same,GI50,[50],0.955 µM (active)
same,GI50,[51],> 100 µM (inactive)
same,GI50,[52],12.6 µM (inactive)
same,GI50,[53],> 100 µM (inactive)
same,GI50,[54],> 100 µM (inactive)
same,GI50,[55],> 86.3 µM (inactive)
same,GI50,[56],7.38 µM (inactive)
same,GI50,[57],3.34 µM (inactive)
O=C(O)C1C2OC(C(Br)C2Br)C1C(=O)O (stereo not given),GI50,[1],> 100 µM (inactive)
same,GI50,[2],> 100 µM (inactive)
same,GI50,[3],> 100 µM (inactive)
same,GI50,[4],> 100 µM (inactive)
same,GI50,[58],> 100 µM (inactive)
same,GI50,[5],> 100 µM (inactive)
same,GI50,[7],> 100 µM (inactive)
same,GI50,[8],> 100 µM (inactive)
same,GI50,[9],> 100 µM (inactive)
same,GI50,[10],> 100 µM (inactive)
same,GI50,[11],> 100 µM (inactive)
same,GI50,[12],> 100 µM (inactive)
same,GI50,[13],> 100 µM (inactive)
same,GI50,[14],> 100 µM (inactive)
same,GI50,[16],> 100 µM (inactive)
same,GI50,[17],> 100 µM (inactive)
same,GI50,[18],> 100 µM (inactive)
same,GI50,[19],> 100 µM (inactive)
same,GI50,[20],> 100 µM (inactive)
same,GI50,[22],> 100 µM (inactive)
same,GI50,[23],24.7 µM (inactive)
same,GI50,[24],> 100 µM (inactive)
same,GI50,[25],> 100 µM (inactive)
same,GI50,[26],> 100 µM (inactive)
same,GI50,[27],> 100 µM (inactive)
same,GI50,[28],> 100 µM (inactive)
same,GI50,[29],> 100 µM (inactive)
same,GI50,[30],> 100 µM (inactive)
same,GI50,[31],> 100 µM (inactive)
same,GI50,[32],> 100 µM (inactive)
same,GI50,[33],> 100 µM (inactive)
same,GI50,[34],> 100 µM (inactive)
same,GI50,[35],> 100 µM (inactive)
same,GI50,[36],> 100 µM (inactive)
same,GI50,[37],> 100 µM (inactive)
same,GI50,[38],> 100 µM (inactive)
same,GI50,[39],> 100 µM (inactive)
same,GI50,[40],> 100 µM (inactive)
same,GI50,[41],> 100 µM (inactive)
same,GI50,[42],> 100 µM (inactive)
same,GI50,[43],> 100 µM (inactive)
same,GI50,[44],> 100 µM (inactive)
same,GI50,[45],> 100 µM (inactive)
same,GI50,[46],> 100 µM (inactive)
same,GI50,[47],> 100 µM (inactive)
same,GI50,[48],> 100 µM (inactive)
same,GI50,[49],> 100 µM
same,GI50,[50],> 100 µM (inactive)
same,GI50,[51],> 100 µM (inactive)
same,GI50,[52],> 100 µM (inactive)
same,GI50,[53],> 100 µM (inactive)
same,GI50,[54],> 100 µM (inactive)
same,GI50,[55],> 100 µM (inactive)
same,GI50,[56],> 100 µM (inactive)
same,GI50,[57],> 100 µM (inactive)
